Results on 53 compounds are retold here after article PMC5706701, “Development of a homogenous high-throughput assay for inositol hexakisphosphate kinase 1 activity” (PLoS ONE, 2017).

This test has as its target T1, Human IP6K1 (Homo sapiens, UniProt Q92551).
T1 construct: GST (N, cleaved yes); made in house; host or cells: C43 E. coli, pGEX-6P-2
The test can be described thus: IP6K1 high-throughput screen of the Sigma LOPAC (ADP-Glo Max, single point).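 Further: final compound concentration 10µM in 5% DMSO.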 It counts as biochemical.

The mark [1] stands for this setting: LOPAC single-point screen, ADP-Glo Max raw signal per well.
Where [2] appears, read: LOPAC single-point screen, Z-score from raw signal with plate average and StDev.
Setting [3] is: Sigma LOPAC single-point screen, ADP-Glo Max raw signal per well.
Where [4] appears, read: Sigma LOPAC single-point screen, Z-score from plate average and StDev.
Where [5] appears, read: LOPAC single-point screen, ADP-Glo Max luminescence raw signal per well.
[6] abbreviates: LOPAC single-point screen, Z-score from plate average and StDev.
Setting [7] is: LOPAC single-point screen, Z-score relative to plate average and StDev.
The mark [8] stands for this setting: LOPAC single-point screen, Z-score against plate average and StDev.

Counter-ions that a name gives are not always drawn. Like-named read-outs stand apart in the source and are kept apart here.

T1 sequence (Q92551 whole entry): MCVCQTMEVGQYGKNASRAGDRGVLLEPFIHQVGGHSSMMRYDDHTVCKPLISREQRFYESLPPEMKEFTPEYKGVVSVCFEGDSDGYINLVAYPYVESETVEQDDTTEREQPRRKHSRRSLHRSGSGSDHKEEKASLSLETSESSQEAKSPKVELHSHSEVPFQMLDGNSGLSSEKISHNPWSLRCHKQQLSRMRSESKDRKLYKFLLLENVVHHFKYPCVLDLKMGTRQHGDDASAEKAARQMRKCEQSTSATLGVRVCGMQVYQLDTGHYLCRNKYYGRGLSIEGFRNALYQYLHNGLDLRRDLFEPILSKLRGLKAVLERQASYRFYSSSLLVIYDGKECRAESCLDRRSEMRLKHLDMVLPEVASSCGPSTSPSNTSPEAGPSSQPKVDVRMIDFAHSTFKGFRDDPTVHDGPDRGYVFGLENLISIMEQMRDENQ

As to `Cc1ccc(N(CC2=NCCN2)c2cccc(O)c2)cc1` [Phentolamine mesylate], the “Raw Signal” value under setting [1] was found to be 54426. Also, under setting [2], the Z-score is recorded as -0.3104.
Take `Cc1nc(-c2ccc(-c3ccc(C(=O)N4CCc5cc6c(cc54)C4(CCN(C)CC4)CO6)cc3)c(C)c2)no1.Cl` [SB 224289 hydrochloride]: the “Raw Signal” value under setting [3] was 58823. Besides, the Z-score under setting [4] came out at 0.5438.
The like results for `COc1cccc(OC)c1OCCNCC1COc2ccccc2O1.Cl` (stereo not shown) [WB-4101 hydrochloride] were, in that order, 58268 and 0.6298.
The like results for `CCC1(c2ccccc2)C(=O)NCNC1=O` [Primidone] were, in that order, 58828 and 0.5448.
Turning to `CC(C)C(=O)Nc1ccc([N+](=O)[O-])c(C(F)(F)F)c1` [Flutamide], the “Raw Signal” value under setting [5] worked out at 64684. Under setting [6], this compound showed a Z-score of 1.9328.
`C=C[C@H]1C[N@@]2CC[C@H]1C[C@H]2[C@H](O)c1ccnc2ccc(OC)cc12` [Quinine sulfate]: the “Raw Signal” value under setting [1] was determined as 53765. Besides, the Z-score under setting [2] is given as -0.4388.
Consider `CCn1c(=O)[nH]c2cc(Cl)c(Cl)cc21` [DCEBIO], for which the “Raw Signal” value under setting [5] was 52025. Further, the Z-score under setting [7] is given as -0.6381.
For the compound `CSc1nc(N)c2ncn([C@@H]3O[C@H](COP(=O)(O)OP(=O)(O)O)[C@@H](O)[C@H]3O)c2n1.[Na].[Na].[Na]`, the “Raw Signal” value under setting [1] was determined as 54295. This compound returned a Z-score under setting [8] of -0.01655.
For the compound `O=C(O)CCC(C(=O)O)N1C(=O)c2ccccc2C1=O` [L-Glutamic acid, N-phthaloyl-], the “Raw Signal” value under setting [3] turned out to be 59775. For the same compound, the Z-score under setting [4] came to 0.9042.
Turning to `Cl.Nc1c2c(nc3ccccc13)CCCC2`, the “Raw Signal” value worked out at 49916 and the Z-score is -1.409.
With `CN(C)CCC(c1ccc(Br)cc1)c1ccccn1.O=C(O)/C=C\C(=O)O` (racemic) [(±)-Brompheniramine maleate], the “Raw Signal” value under setting [1] is given as 59748. Under setting [8], this compound yielded a Z-score of 0.3232.
Consider `O=[N+]([O-])c1cccc2c(Br)n[nH]c12` [3-Bromo-7-nitroindazole], for which the “Raw Signal” value under setting [5] is recorded as 68484. Further, under setting [6], the Z-score is recorded as 1.862.
As to `C[C@]12C=CC(=O)C=C1CC[C@H]1[C@@H]3C[C@@H](O)[C@](O)(C(=O)CO)[C@@]3(C)C[C@H](O)[C@@]12F` [Triamcinolone], under setting [3], the “Raw Signal” value was found to be 60096. The Z-score under setting [4] is given as 0.7912.
Take `CCCCNc1ccc(C(=O)OCCN(C)C)cc1` [Tetracaine hydrochloride]: under setting [1], the “Raw Signal” value is 56522. Also, the Z-score under setting [8] amounted to 0.09679.
Turning to `O=C(O)Cc1ccc(O)c(O)c1` [3,4-Dihydroxyphenylacetic acid], the “Raw Signal” value under setting [3] is on record as 57060. Under setting [4], this compound gave a Z-score of 0.3844.
The like results for `CCCCS(=N)(=O)CC[C@H](N)C(=O)O` (stereo partly drawn) [L-Buthionine-sulfoximine] were, in that order, 61284 and 0.5937.
`O=C(O)CN(CCOCCOCCN(CC(=O)O)CC(=O)O)CC(=O)O`: the “Raw Signal” value came out at 55582 and the Z-score is on record as 0.08428.
`CN1CCC(=C2c3ccccc3CC(=O)c3sccc32)CC1` [Ketotifen fumarate]: the “Raw Signal” value under setting [5] is recorded as 50782. For the same compound, under setting [7], the Z-score was -0.6068.
`Cl.NC1(C(=O)O)CCCCC1`: the “Raw Signal” value under setting [5] was 53186. Moreover, under setting [7], the Z-score is -0.8326.
The like results for `CN(C)CCCO[C@@H]1[C@H]2OC(C)(C)O[C@H]2O[C@@H]1[C@H](O)CO` [Amiprilose hydrochloride] were, in that order, 53728 and -0.7371.
Take `NCCCNCCCCNCCCN` [Spermine tetrahydrochloride]: under setting [5], the “Raw Signal” value is reported as 52988. Moreover, under setting [7], the Z-score is -0.5898.
Turning to `C=CCN1CC[C@]23CCCC[C@H]2[C@H]1Cc1ccc(O)cc13` [Levallorphan tartrate], the “Raw Signal” value under setting [1] was found to be 52542. The compound also returned a Z-score under setting [2] of -0.3111.
For the compound `CNC(=O)c1cc2c(cn1)[nH]c1ccccc12` [N-Methyl-beta-carboline-3-carboxamide], under setting [3], the “Raw Signal” value was 57600. Further, the Z-score under setting [4] is listed as 0.4941.
For the compound `C[N+]1(C)C2CCC1CC(OC(=O)c1c[nH]c3ccccc13)C2.[I-]` (stereo not shown), under setting [5], the “Raw Signal” value is on record as 66909. In addition, the Z-score under setting [6] was 2.115.
As for `CN(C)C(=O)C(CCN1CCC(O)(c2ccc(Cl)cc2)CC1)(c1ccccc1)c1ccccc1` [Loperamide hydrochloride], under setting [5], the “Raw Signal” value is 51056. This compound also displayed a Z-score under setting [7] of -0.5608.
For 5-Bromo-2 -deoxyuridine, the “Raw Signal” value came to 57175 and the Z-score was -0.13.
As to `CNC(=O)OCC[N+](C)(C)C` [Methylcarbamylcholine chloride], the “Raw Signal” value under setting [3] is reported as 60360. The Z-score under setting [4] came to 1.003.
The corresponding values for `NC(=O)CC[C@H](N)C(=O)O` [L-Glutamine] are 57892 and 0.5534.
Regarding `CC1=C(CC(=O)O)c2cc(F)ccc2/C1=C\c1ccc(S(C)(=O)=O)cc1` [Sulindac sulfone], under setting [1], the “Raw Signal” value is recorded as 56423. The same compound came in with a Z-score under setting [8] of 0.07756.
The like results for `CCOC(=O)c1ncn2c1[C@@H]1CCCN1C(=O)c1cc(OC)ccc1-2` [L-655,708] were, in that order, 54093 and -0.05049.
Take `C=CC1=C(C)c2cc3[nH]c(cc4nc(cc5[nH]c(cc1n2)c(C)c5CCC(=O)O)C(CCC(=O)O)=C4C)c(C)c3C=C` [Protoporphyrin IX disodium]: the “Raw Signal” value under setting [1] was determined as 54546. Further, the Z-score under setting [2] is listed as -0.2871.
`O=C(O)c1cccnc1Nc1cccc(C(F)(F)F)c1` [Niflumic acid]: under setting [5], the “Raw Signal” value is given as 47033. The same compound registered a Z-score under setting [7] of -1.237.
Turning to `CC(Cc1ccc(O)cc1)NCC(O)c1cc(O)cc(O)c1` (stereo not shown) [Fenoterol hydrobromide], the “Raw Signal” value under setting [1] came out at 56195. Also, under setting [8], the Z-score is recorded as 0.2088.
For the compound `NC(CO)(CO)CO.O=C(c1ccccc1)c1ccc2n1CCC2C(=O)O` (stereo not shown) [Ketorolac tris salt], under setting [5], the “Raw Signal” value stood at 48098. This compound also gave a Z-score under setting [7] of -1.058.
For `Cn1c(=O)c2[nH]cnc2n(C)c1=O` [Theophylline], the “Raw Signal” value under setting [5] stood at 53365. In addition, the Z-score under setting [7] is recorded as -0.5166.
As for `C1CCc2nnnn2CC1` [Pentylenetetrazole], the “Raw Signal” value under setting [3] is 57450. The compound further showed a Z-score under setting [4] of 0.5136.
The like results for `CCCCC[C@H](CC(=O)NO)C(=O)N[C@H](C(=O)N1CCC[C@H]1CO)C(C)C` [Actinonin] were, in that order, 64769 and 1.208.
Turning to `Cc1oncc1C(=O)Nc1ccc(C(F)(F)F)cc1` [Leflunomide], the “Raw Signal” value under setting [5] is listed as 65933. This compound also displayed a Z-score under setting [6] of 1.939.
On to `COc1ccc(C(=O)NCc2cccnc2)cc1C(=O)NCc1cccnc1` [Picotamide], for which the “Raw Signal” value under setting [1] is 56073. This compound had a Z-score under setting [8] of 0.009557.
The corresponding values for `CC(C)C[C@H](NC(=O)[C@H](O)[C@H](N)Cc1ccccc1)C(=O)O` [Epibestatin hydrochloride] are 58771 and 0.1511.
In the case of `O=C(NCCNCC(O)COc1ccc(O)cc1)N1CCOCC1` (stereo not shown) [Xamoterol hemifumarate], the “Raw Signal” value under setting [3] is recorded as 60033. Under setting [4], this compound had a Z-score of 0.7789.
Turning to `COc1ccccc1N1CCN(CCCNc2cc(=O)n(C)c(=O)n2C)CC1` [Urapidil hydrochloride], under setting [1], the “Raw Signal” value came out at 54926. This compound showed a Z-score under setting [2] of -0.2133.
The corresponding values for `O=C(O)CNC(=O)C(CS)Cc1ccccc1` (racemic) [DL-Thiorphan] are 55327 and -0.1354.
In the case of `CC(C)C[C@H]1C(=O)N2CCC[C@H]2[C@]2(O)O[C@](NC(=O)[C@@H]3C=C4c5cccc6[nH]c(Br)c(c56)C[C@H]4N(C)C3)(C(C)C)C(=O)N12.CS(=O)(=O)O` [(+)-Bromocriptine methanesulfonate], under setting [1], the “Raw Signal” value amounted to 59214. The Z-score under setting [8] amounted to 0.2291.
On to `CCCN(CCC)C1Cc2cc(OC)c(OC)cc2C1.O=C(O)/C=C\C(=O)O` [U-99194A maleate], for which the “Raw Signal” value under setting [1] is 57664. Under setting [8], this compound showed a Z-score of 0.3187.
Turning to `COc1ccccc1N1CCN(CC(O)COc2cccc3ccccc23)CC1.Cl.Cl` (stereo not shown) [Naftopidil dihydrochloride], the “Raw Signal” value under setting [3] was determined as 57488. The same compound came in with a Z-score under setting [4] of 0.52.
The corresponding values for `COc1cc2c(cc1O)CC[C@@H]1[C@@H]2CC[C@]2(C)[C@@H](O)CC[C@@H]12` [2-methoxyestradiol] are 58620 and 0.7102.
Take `CCCOC(=O)c1c(-c2ccccc2)nc(CC)c(C(=O)SCC)c1CCC` [MRS 1523]: the “Raw Signal” value under setting [1] turned out to be 53053. This compound registered a Z-score under setting [2] of -0.2252.
With `NCCCCCC(=O)O` [6-Aminohexanoic acid], the “Raw Signal” value under setting [5] is recorded as 70191. This compound returned a Z-score under setting [6] of 2.162.
In the case of `Cc1c(C)c2c(c(C)c1O)CCC(C)(CN1CCN(c3cc(N4CCCC4)nc(N4CCCC4)n3)CC1)O2.Cl.Cl` (stereo not shown) [U-83836 dihydrochloride], the “Raw Signal” value under setting [5] was determined as 52883. The Z-score under setting [7] is reported as -0.6102.
In the case of `COC(=O)C1=C(C)NC(C)=C(C(=O)OCCN(C)Cc2ccccc2)C1c1cccc([N+](=O)[O-])c1` (stereo not shown) [Nicardipine hydrochloride], the “Raw Signal” value under setting [5] worked out at 66364. Under setting [6], this compound had a Z-score of 2.011.
In the case of `C=C[C@H]1C[N@@]2CC[C@H]1C[C@@H]2[C@@H](O)c1ccnc2ccc(OC)cc12` [Quinidine sulfate], under setting [1], the “Raw Signal” value was 56373. This compound also yielded a Z-score under setting [8] of 0.06784.
Take `CNC(=O)[C@H]1O[C@@H](n2cnc3c(NCc4ccc(N)cc4)ncnc32)[C@H](O)[C@@H]1O` [AB-MECA]: the “Raw Signal” value under setting [5] was 53262. This compound displayed a Z-score under setting [7] of -0.8192.
